Reference: publication PMC5345165, “Cardiotoxicity evaluation using human embryonic stem cells and induced pluripotent stem cell-derived cardiomyocytes” (Stem Cell Research & Therapy, 2017)
Each block holds one compound with its values, some of them ahead of it.

Key:
hESC-CMs = assay: xCELLigence RTCA Cardio impedance assay on hESC-CMs; assay type: cell-based, human; conditions: for CI (concentration at which cell index is decreased, ↓): arrow ↓ = CI decreased, NO = no effect
Description: (§1) Human ESC-CMs were kindly provided by the Institute of Biophysics of the Chinese Academy of Sciences, Beijing, China. Human iPSC-CMs, provided by a domestic manufacturer (Cellapy: CA2001106, Beijing, China), were also examined. Cells were incubated in maintaining medium at 37 °C, 5% CO2, with culture medium refreshed every 2 days. Cells were dissociated and replated into 96-well E-plates (ACEA Biosciences, Hangzhou, China), which was pre-coated with 0.1% gelatin. Cells were plated at a density of 50,000 cells per well.
(§2) Spontaneous cardiomyocytes contraction and cell health were monitored in real-time by impedance using xCELLigence real-time cellular analyzer (RTCA) Cardio system (ACEA Biosciences, Hangzhou, China). Impedance signals were monitored and recorded with 20 s recording per sweep.
(§3) Drug dilutions were equilibrated in a 37 °C, 5% CO2 incubator for 30 min before being applied to E-plates.
(§4) For data analysis, cellular impedance index, beat rate, and amplitude were measured off-line using RTCA Cardio software 1.0 and normalized for each well to the baseline (pre-dose) values measured prior to the compounds treatment. Statistics were performed using SPSS 21.0 (IBM Corp., Armonk, NY, USA). Data were presented as mean ± SEM. Statistical significance of differences was estimated by one-way ANOVA or Student’s t test. p < 0.05 was considered significant.

hiPSC-CMs = assay: xCELLigence RTCA Cardio impedance assay on hiPSC-CMs; assay type: cell-based, human; conditions: for CI (concentration at which cell index is decreased, ↓): arrow ↓ = CI decreased
Description: as §1, §2, §3, §4

[1] = concentration-dependent effect, impedance
[2] = hiPSC-CMs, concentration-dependent
[3] = hiPSC-CMs, concentration-dependent effect, impedance

- effect on CI (hESC-CMs; 100 μmol/L, when perfusion was initiated): significant temporary decrease
- CI (concentration at which cell index is decreased, ↓) (hESC-CMs): 100↓ μmol•L^-1
- IC50/EC50 (IC50) (hESC-CMs; [1]): 2180 nM
- CI (concentration at which cell index is decreased, ↓) (hiPSC-CMs; hiPSC-CMs): 100↓ μmol•L^-1
- effect on CI (hiPSC-CMs; [2]): reduced
- IC50/EC50 (IC50) (hiPSC-CMs; [3]): 13970 nM
Structure (SMILES): C=C[C@H]1C[N@@]2CC[C@H]1C[C@@H]2[C@@H](O)c1ccnc2ccc(OC)cc12 [Quinidine, quinidine]
- time at which spontaneous beating recovered (hESC-CMs; 12.5 μmol/L): 6 h
- time at which spontaneous beating recovered (hESC-CMs; 50 μmol/L): 24 h
- self-recovery after abolished cellular automaticity (hESC-CMs; 100 μmol/L): without observing self-recovery
- time post administration at which spontaneous beating ceased (hESC-CMs; 12.5 and 50 μmol/L): 0.5 h
- concentration that weakened the pulse signals (hESC-CMs; concentration-dependent): ≥ 3.13 µmol/L
- concentration that weakened the amplitudes of pulse signals (hiPSC-CMs; hiPSC-CMs): ≥ 12.5 µmol/L
- time after which beating rate spontaneously recovered (hiPSC-CMs; hiPSC-CMs, 3.13 μmol/L): 1 h
- beating rate (hiPSC-CMs; hiPSC-CMs, 3.13 μmol/L, 0.5 h after administration): markedly reduced
- time after which amplitude recovered (hiPSC-CMs; hiPSC-CMs, 12.5 μmol/L): 2 h
- amplitude (hiPSC-CMs; hiPSC-CMs, 12.5 μmol/L, 0.5 h and 1 h post administration): substantially reduced
- self-recovery of automaticity within the observation period (hiPSC-CMs; hiPSC-CMs, 50 and 100 μmol/L): without self-recovery
- time after administration at which cellular automaticity ceased (hiPSC-CMs; hiPSC-CMs, 50 and 100 μmol/L): 0.5 h

- effect on CI and pulse signals (hESC-CMs; concentration-dependent): reduced
- IC50/EC50 (IC50) (hESC-CMs; [1]): 140 nM
- CI (concentration at which cell index is decreased, ↓) (hiPSC-CMs; hiPSC-CMs): 10↓ μmol•L^-1
- effect on CI and pulse signals (hiPSC-CMs; [2]): reduced
- IC50/EC50 (IC50) (hiPSC-CMs; [3]): 5170 nM
Structure (SMILES): O=C(CCCN1CCC(O)(c2ccc(Cl)cc2)CC1)c1ccc(F)cc1 [Haloperidol, haloperidol]
- beating rate (hESC-CMs; 0.01 μmol/L, 6 h post administration): mild reduction
- spontaneous beating rate and amplitudes (hESC-CMs; 0.1 μmol/L): significantly reduced
- time at which cellular automaticity ceased (hESC-CMs; 1 μmol/L): 0.5 h
- time post administration at which partial recovery was observed (hESC-CMs; 1 μmol/L): 24 h
- self-recovery after abolished spontaneous beating (hESC-CMs; 10 μmol/L, investigation period): no self-recovery
- spontaneous beating rate (hiPSC-CMs; hPSC-CMs, 0.1 μmol/L): Mild reduction
- time post administration at which beating rate recovered (hiPSC-CMs; hPSC-CMs, 0.1 μmol/L): 18 h
- beating rate (hiPSC-CMs; hPSC-CMs, 1 μmol/L, after 0.5 h): significantly reduced
- time at which cellular automaticity ceased (hiPSC-CMs; hPSC-CMs, 10 μmol/L): 0.5 h
- time at which self-recovery was observed (hiPSC-CMs; hPSC-CMs, 10 μmol/L): 24 h
- amplitude compared with controls (hiPSC-CMs; hPSC-CMs, 10 μmol/L, after self-recovery at 24 h): significantly decreased

- CI (concentration at which cell index is decreased, ↓) (hESC-CMs): 0.1↓ μmol•L^-1
- CI (concentration at which cell index is decreased, ↓) (hESC-CMs; listed as isoprenaline): ≥ 0.1 µmol/L
- IC50/EC50 (EC50) (hESC-CMs; [1]): 40 nM
- CI (concentration at which cell index is decreased, ↓) (hiPSC-CMs; hiPSC-CMs): 1↓ μmol•L^-1
- effect on CI (hiPSC-CMs; [2]): decrease
- IC50/EC50 (EC50) (hiPSC-CMs; [3]): 30 nM
Structure (SMILES): CC(C)NCC(O)c1ccc(O)c(O)c1 (stereo not drawn) [Isoprenaline, isoprenaline]
- time after which beating rate recovered (hESC-CMs; 0.01 μmol/L): 12 h
- spontaneous beating rate (hESC-CMs; 0.01 μmol/L, 0.5 h post injection): increased
- time at which automaticity recovered (hESC-CMs; 0.1, 1 and 10 μmol/L): 24 h
- cellular automaticity (hESC-CMs; 0.1, 1 and 10 μmol/L, 0.5 h post injection): significantly increased
- amplitude (hiPSC-CMs; hPSC-CMs, 0.1, 1 and 10 μmol/L): increased
- time at which beating rate recovered (hiPSC-CMs; hiPSC-CMs, 0.1, 1 and 10 μmol/L): 24 h
- beating rate (hiPSC-CMs; hiPSC-CMs, 0.1, 1 and 10 μmol/L, after 0.5 h of administration): significantly increased

Structure (SMILES): Cc1cccc(CCN2CCC(C(=O)c3ccc(NS(C)(=O)=O)cc3)CC2)n1 [E-4031]
- time at which cells recovered automaticity (hESC-CMs; 10 nmol/L): 24 h
- time post administration at which spontaneous beating ceased (hESC-CMs; 300 nmol/L): 0.5 h
- time of temporary recovery of spontaneous beating activity (hESC-CMs; 300 nmol/L, one recording): 18 h
- time post administration at which spontaneous activity ceased (hESC-CMs; 10, 30 and 100 nmol/L): 6 h
- spontaneous beating rate (hESC-CMs; all concentrations (10, 30, 100, 300 nmol/L), upon immediate administration): Reduction
- CI amplitude (hiPSC-CMs; hiPSC-CMs, 30 nmol/L, 18 h culture, tended to recover at 24 h): Reduction
- time at which spontaneous beating ceased (hiPSC-CMs; hiPSC-CMs, 100 nmol/L): 12 h
- spontaneous beating rate (hiPSC-CMs; hiPSC-CMs, 100 nmol/L, 6 h after administration): markedly reduced
- time post administration at which spontaneous activity was abolished (hiPSC-CMs; hiPSC-CMs, 300 nmol/L): 2 h
- spontaneous beating rate (hiPSC-CMs; hiPSC-CMs, 300 nmol/L, 1 h after administration): significantly reduced
